Test results: ChEMBL document CHEMBL3882247, “Use of dibenzofuranone derivatives to inhibit kinases” (2013)
The source made the active and inactive calls. The calls are words filed in the database; no cut-off is given here.

What was measured:
[1] = molecular target: T1, Casein kinase II (Homo sapiens) (UniProt P67870+P68400+P19784); test: Inhibition of CK2 (unknown origin) assessed as residual activity using E-peptide as substrate at 10 uM incubated for 10 mins prior to testing by capillary electrophoretic analysis; assay type: protein-complex assay
LNCaP [2] = test: Cytotoxicity against human LNCAP cells assessed as decrease in cell viability after 24 to 72 hrs by MTT assay; assay type: functional, cell-based
[3] = molecular target: T1, Casein kinase II (Homo sapiens); test: Inhibition of CK2 in human LNCAP cell lysates after 24 to 48 hrs in presence of [gamma-32P]ATP by radiometric analysis; assay type: cell-based
Casein kinase 2 = Casein kinase 2 (Rattus norvegicus, UniProt P19139); test: Inhibition of rat liver CK2 using RRRADDSDDDDD as substrate after 10 mins in presence of [gamma-33P]-ATP
Casein kinase 2, sequence (P67874 whole entry): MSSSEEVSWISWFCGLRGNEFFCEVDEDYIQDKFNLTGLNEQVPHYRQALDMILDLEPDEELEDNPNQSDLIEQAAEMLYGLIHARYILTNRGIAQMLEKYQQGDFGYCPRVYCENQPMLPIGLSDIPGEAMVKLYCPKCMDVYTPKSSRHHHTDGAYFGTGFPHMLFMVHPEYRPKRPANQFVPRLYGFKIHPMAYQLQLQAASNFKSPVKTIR
Casein kinase 2, sequence (P19139 whole entry): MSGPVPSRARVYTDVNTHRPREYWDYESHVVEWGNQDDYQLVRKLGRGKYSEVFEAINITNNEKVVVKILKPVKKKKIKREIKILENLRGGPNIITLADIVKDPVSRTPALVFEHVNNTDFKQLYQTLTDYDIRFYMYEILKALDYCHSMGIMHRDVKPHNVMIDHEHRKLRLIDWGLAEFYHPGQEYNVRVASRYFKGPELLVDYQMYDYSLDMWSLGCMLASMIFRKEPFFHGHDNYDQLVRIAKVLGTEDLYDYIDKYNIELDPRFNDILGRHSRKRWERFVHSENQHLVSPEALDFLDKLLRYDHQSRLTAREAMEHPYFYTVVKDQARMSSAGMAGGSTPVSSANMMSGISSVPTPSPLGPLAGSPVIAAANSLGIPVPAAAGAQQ

LNCaP [4] = test: Cytotoxicity against human LNCAP cells assessed as cell viability at 25 uM after 24 hrs by MTT assay; assay type: functional
LNCaP [5] = test: Cytotoxicity against human LNCAP cells assessed as cell viability at 50 uM after 24 hrs by MTT assay; assay type: functional
LNCaP [6] = test: Cytotoxicity against human LNCAP cells assessed as cell viability at 25 uM after 48 hrs by MTT assay; assay type: functional
LNCaP [7] = test: Cytotoxicity against human LNCAP cells assessed as cell viability at 50 uM after 48 hrs by MTT assay; assay type: functional
LNCaP [8] = test: Cytotoxicity against human LNCAP cells assessed as cell viability at 50 uM after 72 hrs by MTT assay; assay type: functional
LNCaP [9] = test: Induction of apoptosis in human LNCAP cells assessed as PARP cleavage at 25 to 50 uM after 24 to 48 hrs by Western blot analysis; assay type: functional, cell-based
LNCaP [10] = test: Induction of apoptosis in human LNCAP cells assessed as PARP cleavage after 24 to 48 hrs by Western blot analysis; assay type: functional, cell-based

Compound: CC(=O)Oc1c(Cl)c(Cl)c2oc(C(=O)C=C(C)C)c(N)c2c1C#N
- Activity [1]: 7%

Compound: COc1ccc(/N=C/c2c(O)ccc3c2oc2cc(Cl)c(O)c(Cl)c23)cc1
- Activity (LNCaP [2]): Dose-dependent effect
- inhibition [3]: Active

Compound: O=c1oc2c(O)c(O)cc3c(=O)oc4c(O)c(O)cc1c4c23 [ELLAGIC ACID]
- IC50 (Casein kinase 2): 0.04 µM

Compound: COc1ccc(N/C=C2\C(=O)CCc3c2oc2cc(Cl)c(O)c(Cl)c32)cc1
- Activity (LNCaP [2]): Dose-dependent effect
- inhibition [3]: Active

Compound: CCOC(=O)c1oc2c(Cl)c(Cl)c(OC(C)=O)c(C#N)c2c1N
- Activity [1]: 31%

Compound: CC(C)=CC(=O)c1oc2c(Cl)c(Cl)c(O)c(C#N)c2c1N
- Activity [1]: < 4%

Compound: Brc1c(Br)c(Br)c2[nH]nnc2c1Br
- Activity (LNCaP [2]): Dose-dependent effect
- Activity (LNCaP [4]): Active
- Activity (LNCaP [5]): Active
- Activity (LNCaP [6]): Active
- Activity (LNCaP [7]): Active
- Activity (LNCaP [8]): Active
- Activity (LNCaP [9]): Active

Compound: Cc1ccc(N/C=C2\C(=O)CCc3c2oc2c(Cl)c(Cl)c(O)cc32)cc1
- Activity [1]: < 4%
- Activity (LNCaP [2]): Dose-dependent effect
- Activity (LNCaP [10]): Dose-dependent effect
